Tests used:
Type in all cases: in vivo
[1] = test system: Housefly [Musca domestica]; experiment: Housefly insecticidal test; settings: μg per 25 female flies; mortality after 48 hours
Procedure, shortened: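 Residual contact test: acetone dilution, 0.01% peanut oil spreader, solvent evaporated; 25 ♀ flies (1-2 d old) per cage; sugar-water plug; 48 h mortality read. LC50 in μg/25 female flies, from dose-mortality curves; top dose 100 μg/25 flies.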

[2] = test system: Tobacco Budworm [Heliothis virescens (Fabricius)] eggs; experiment: Tobacco budworm egg test; settings: 2-day old eggs, percent in solution
Procedure, shortened: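 Paper towel patches bearing 2-day old eggs were dipped in acetone solutions of compound, then set in petri dishes over larval rearing medium at 78° F. Mortality was scored once all control eggs had hatched and larvae were feeding. LC50, from dosage-mortality curves, is given as percent compound in solution.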

[3] = test system: Cabbage Looper [Trichoplusia ni (Hubner)]; experiment: Cabbage looper insecticidal test; settings: second-instar larvae, percent in solution; 3-5 days
Procedure, shortened: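 Compounds in 50-50 acetone-water were applied by dipping squash cotyledons (about 1×1.5 in) for 2-3 s; dried leaves went into petri dishes on moist filter paper with 5 second-instar larvae under high humidity. Mortality was scored after 3-5 days; LC50 from dosage-mortality curves, as percent compound in solution.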

[4] = test system: Maize weevil [Sitophilus Zeamais (Motschulsky)]; experiment: Maize weevil insecticidal test; settings: adult weevils, percent in solution; 48 hours
Method: The compounds in Tables 1 and 2 above were tested for insecticidal activity using the following testing procedures. LC50 values, based on the results of these tests and calculated according to dosage-mortality curves, are expressed in Table 3.
Maize weevil [Sitophilus Zeamais (Motschulsky)]:
Test compounds were diluted in a 50:50 acetone:water solution. Four corn seeds [Zea mays (L.)] which had been immersed in test solutions for 2-3 seconds and allowed to dry were placed in containers together with 10 adult weevils. The containers were covered and kept at a temperature of about 25° C. Mortality was recorded after 48 hours. Test concentrations ranged from 0.01% down to that at which 50% mortalilty occurred. The LC50 values are expressed below in Table 3 under the heading "MW" in terms of percent of the test compound in solution.

SMILES | LC50, HF [1] | LC50, TBW, E (TBW-E) [2] | LC50, CL [3] | LC50, MW [4]
CC(C)C(=Nc1ccc(C(C)(C)C)cc1)OCc1ccc(F)c(Oc2ccc(Cl)cc2)c1 [Compound 301] | > 100 µg | > 0.1% | 0.008% | > 0.01%
CC(C)C(=Nc1cccc([N+](=O)[O-])c1)OCc1cccc(Oc2ccccc2)c1 [Compound 302] | 15 µg | > 0.1% | 0.003% | > 0.01%
CC(C)C(=Nc1c(F)c(F)cc(F)c1F)OCc1cccc(Oc2ccc(F)cc2)c1 [Compound 304] | > 100 µg | > 0.1% | 0.0024% | > 0.01%
CC(Br)C(=Nc1ccc2c(c1)OCO2)OCc1cccc(Oc2ccccc2)c1 (centres unmarked) [Compound 306] | > 100 µg | 0.1% | 0.005% | > 0.01%
CC(C)C(=Nc1ccc([N+](=O)[O-])c(C(F)(F)F)c1)OCc1cccc(Oc2ccccc2)c1 [Compound 307] | > 100 µg | 0.08% | 0.002% | > 0.01%
CC(C)C(=Nc1ccc(F)c(I)c1)OCc1ccc(F)c(Oc2ccccc2)c1 [Compound 334] | 9 µg | 0.013% | 0.0007% | > 0.01%
CC(C)c1ccc(N=C(OCc2cccc(Oc3ccccc3)c2)C2CCC2)cc1 [Compound 339] | > 100 µg | > 0.1% | 0.017% | > 0.01%
CC(C)C(=Nc1ccc(Cl)c(C(F)(F)F)c1)OCc1ccc(F)c(Oc2ccc(F)cc2)c1 [Compound 340] | 34 µg | 0.04% | 0.00037% | 0.0069%
CC(C)C(=Nc1cccc(Cl)c1)OCc1ccc(F)c(Oc2ccc(F)cc2)c1 [Compound 341] | 4 µg | 0.023% | 0.0005% | > 0.01%
CC(C)C(=Nc1cccc(F)c1)OCc1ccc(F)c(Oc2ccc(F)cc2)c1 [Compound 342] | 4.1 µg | 0.04% | 0.0008% | > 0.01%
Cc1ccc(Oc2cccc(COC(=Nc3ccc(C(C)(C)C)cc3)C(C)C)c2)cc1 [Compound 344] | > 100 µg | > 0.1% | 0.024% | > 0.01%
COc1ccc(Oc2cccc(COC(=Nc3ccc(C(C)(C)C)cc3)C(C)C)c2)cc1 [Compound 345] | > 100 µg | > 0.1% | 0.018% | > 0.01%
CCOc1ccc(N=C(OCc2cccc(Oc3ccccc3)c2)C(C)C)cc1Cl [Compound 368] | < 100 µg | 0.04% | 0.002% | > 0.01%
CCOc1ccc(N=C(OCc2cccc(Oc3ccccc3)c2)C(C)C)cc1 [Compound 371] | < 100 µg | > 0.1% | 0.0022% | > 0.01%
CCOc1ccc(N=C(OCc2ccc(F)c(Oc3ccc(Cl)cc3)c2)C(C)C)cc1 [Compound 372] | > 100 µg | > 0.1% | > 0.1% | > 0.01%
CCOc1ccc(N=C(OCc2ccc(F)c(Oc3ccccc3)c2)C(C)C)cc1 [Compound 373] | < 100 µg | > 0.1% | > 0.1% | > 0.01%

SMILES | LC50, HF [1] | LC50, TBW, E (TBW-E) [2] | LC50, CL [3] | LC50, MW [4]
CC(C)C(=Nc1ccc(I)c(Cl)c1)OCc1cccc(Oc2ccc(F)cc2)c1 [Compound 374] | < 100 µg | 0.02% | 0.00058% | > 0.01%
CC(C)C(=Nc1ccc(F)c(Br)c1)OCc1ccc(F)c(Oc2ccc(Cl)cc2)c1 [Compound 379] | < 100 µg | 0.02% | 0.00075% | > 0.01%
CC(C)C(=Nc1ccc(Br)c(Br)c1)OCc1ccc(F)c(Oc2ccc(F)cc2)c1 [Compound 383] | < 100 µg | 0.038% | 0.00029% | > 0.01%
CC(C)C(=Nc1ccc(Br)c(Br)c1)OCc1ccc(F)c(Oc2ccccc2)c1 [Compound 384] | < 100 µg | 0.025% | > 0.1% | > 0.01%
CC(C)C(=Nc1ccc(I)c(Cl)c1)OCc1ccc(F)c(Oc2ccc(F)cc2)c1 [Compound 385] | < 100 µg | > 0.1% | > 0.1% | > 0.01%
CC(C)C(=Nc1cccc(Br)c1)OCc1ccc(F)c(Oc2ccc(Cl)cc2)c1 [Compound 386] | < 100 µg | > 0.1% | 0.0012% | > 0.01%
CC(C)C(=Nc1ccc(Cl)c(C(F)(F)F)c1)OCc1ccc(F)c(Oc2ccccc2)c1 [Compound 388] | < 100 µg | > 0.1% | 0.0012% | > 0.01%
CC(C)C(=Nc1cccc(I)c1)OCc1cccc(Oc2ccc(Cl)cc2)c1 [Compound 389] | < 100 µg | > 0.1% | 0.00069% | > 0.01%
CC(C)C(=Nc1cccc(Cl)c1)OCc1ccc(F)c(Oc2ccc(Cl)cc2)c1 [Compound 390] | < 100 µg | 0.045% | 0.0021% | > 0.01%
CC(C)C(=Nc1ccc(C#N)cc1)OCc1ccc(F)c(Oc2ccc(Cl)cc2)c1 [Compound 392] | < 100 µg | 0.039% | 0.00034% | > 0.01%
CC(C)C(=Nc1ccc(C#N)cc1)OCc1cccc(Oc2ccc(Cl)cc2)c1 [Compound 393] | < 100 µg | > 0.1% | 0.00037% | > 0.01%
CC(C)C(=Nc1ccc(C#N)cc1)OCc1ccc(F)c(Oc2ccc(F)cc2)c1 [Compound 394] | < 100 µg | 0.05% | 0.00025% | > 0.01%
CC(C)C(=Nc1ccc(F)c(Cl)c1F)OCc1ccc(F)c(Oc2ccc(Cl)cc2)c1 [Compound 395] | 8.6 µg | 0.018% | < 0.1% | 0.004%
Cc1cc(N=C(OCc2ccc(F)c(Oc3ccc(F)cc3)c2)C(C)C)ccc1F [Compound 396] | < 100 µg | < 0.1% | 0.0017% | > 0.01%
Cc1cc(N=C(OCc2cccc(Oc3ccc(Cl)cc3)c2)C(C)C)ccc1F [Compound 397] | < 100 µg | < 0.1% | 0.0019% | > 0.01%
CC(C)C(=Nc1ccc(F)c(Br)c1)OCc1cccc(Oc2ccc(Cl)cc2)c1 [Compound 398] | < 100 µg | < 0.1% | < 0.1% | > 0.01%

Reference: patent US5070210A, “Novel ketenimines as intermediates for insecticides” (ICI Americas Inc., priority 1990, dated 1991)
